Measurements as given in patent US8389011B2, “Pharmaceutical compositions of cholesteryl ester transfer protein inhibitors” (Bend Research, Inc., priority 2000, dated 2013).

Assay: In vitro dissolution test, microcentrifuge method, in phosphate buffered saline (PBS) pH 6.5
Format: physicochemical
Details: for AUC / Drug 2 Concentration: Table 5, PBS pH 6.5, 37° C.; for AUC: dose about 1000 μg/mL; for Drug 2 Concentration: Drug 2 dose about 1000 μg/mL
Method: The compositions comprising the CETP inhibitor and concentration-enhancing polymer provide enhanced concentration of the dissolved CETP inhibitor in in vitro dissolution tests. […] An appropriate PBS solution is an aqueous solution comprising 20 mM sodium phosphate (Na2HPO4), 47 mM potassium phosphate (KH2PO4), 87 mM NaCl, and 0.2 mM KCl, adjusted to pH 6.5 with NaOH. An appropriate MFD solution is the same PBS solution wherein additionally is present 7.3 mM sodium taurocholic acid and 1.4 mM of 1-palmitoyl-2-oleyl-sn-glycero-3-phosphocholine. In particular, a composition of the present invention can be dissolution-tested by adding it to MFD or PBS solution and agitating to promote dissolution.
Indeed, for some extremely insoluble CETP inhibitors, in order to identify the MDC achieved it may be necessary to use an amount of test composition such that if all of the CETP inhibitor dissolved, the CETP inhibitor concentration would be 10,000-fold or even more, that of the equilibrium concentration of the CETP inhibitor.
The MDC is taken to be the maximum value of dissolved CETP inhibitor measured over the duration of the test.
Filtration can be conducted using a 13 mm, 0.45 μm polyvinylidine difluoride syringe filter sold by Scientific Resources under the trademark TITAN®. Centrifugation is typically carried out in a polypropylene microcentrifuge tube by centrifuging at 13,000 G for 60 seconds. Other similar filtration or centrifugation methods can be employed and useful results obtained.
The spray-dried dispersions of Examples 6 and 7 were evaluated in an in vitro dissolution test using a microcentrifuge method. In this test, the spray-dried dispersion was added to a microcentrifuge tube for a Drug 2 dose of about 1000 μg/mL (7.2 mg for Example 6, 18 mg for Example 7). The tube was placed in a 37° C. sonicating bath, and 1.8 mL phosphate buffered saline (PBS) at pH 6.5 and 290 mOsm/kg was added. The samples were quickly mixed using a vortex mixer for about 60 seconds. The samples were centrifuged at 13,000 G at 37° C. for 1 minute. The resulting supernatant solution was then sampled and diluted 1:6 (by volume) with methanol and then analyzed by high-performance liquid chromatography (HPLC). The contents of the tubes were mixed on the vortex mixer and allowed to stand undisturbed at 37° C. until the next sample was taken. Samples were collected at 4, 10, 20, 40, 90, and 1200 minutes.
For Control 2, an in vitro dissolution test was performed using the procedures described above except that 1.8 mg of crystalline Drug 2 was used.
In this method, 7.2 mg of each spray-dried dispersion was added to a 2-mL microcentrifuge tube. The tube was placed in a 37° C. sonicating bath, and 1.8 mL of a phosphate-buffered saline (PBS) solution at pH 6.5 and 290 mOsm/kg was added, resulting in a TCmax of 400 μg/mL. The samples were quickly mixed using a combination of vortex mixer and sonication for about 90 seconds. The samples were centrifuged at 13,000 G at 37° C. for 1 minute. The resulting supernatant solution was then sampled and diluted 1:6 (by volume) with methanol and then analyzed by HPLC. The tubes were then mixed on the vortex mixer and allowed to stand undisturbed at 37° C. until the next sample. Samples were collected at 4, 10, 20, 40, 90 and 1200 minutes.
For Control 5, an in vitro dissolution test was performed using the procedure described above, except that 0.72 mg of non-crystalline Drug 3 was placed in a microcentrifuge tube and mixed with 1.8 mL of PBS.
In this method, 15 mg of each SDD was added to a 2-mL microcentrifuge tube. The tube was placed in a 37° C. sonicating bath, and 1.5 mL of a phosphate-buffered saline (PBS) solution at pH 6.5 and 290 mOsm/kg) was added, resulting in a TCmax of 1000 μg/mL. The samples were quickly mixed using a combination of vortex mixer and sonication for about 90 seconds.

[1] = Table 25: Drug 2, PBS, melt-congeal poloxamer dispersions
[2] = Table 28: Drug 2, PBS, spray-dried poloxamer dispersions
[3] = Table 37: Drug 2, PBS, CMEC dispersions

- actual Cmax,90 for Drug 2 in Control 2 (believed) (PBS, inferred from the accurately measured solubility of crystalline Drug 2): about 0.01 μg/ml
- AUC (Drug 2, to 0 min): 0 min-μg/mL
- AUC (Drug 2, to 4 min): <2 min-μg/mL
- AUC (Drug 2, to 10 min): <8 min-μg/mL
- AUC (Drug 2, to 20 min): <18 min-μg/mL
- AUC (Drug 2, to 40 min): <38 min-μg/mL
- AUC (Drug 2, to 90 min): <88 min-μg/mL
- AUC (Drug 2, to 1200 min): <1,200 min-μg/mL
- Drug 2 Concentration (0 min): 0 µg/mL
- Drug 2 Concentration (4 min): <1 µg/mL
- Drug 2 Concentration (10 min): <1 µg/mL
- Drug 2 Concentration (20 min): <1 µg/mL
- Drug 2 Concentration (40 min): <1 µg/mL
- Drug 2 Concentration (90 min): <1 µg/mL
- Drug 2 Concentration (1200 min): <1 µg/mL
- AUC90 (Table 6, area under the aqueous concentration versus time curve after 90 minutes, Drug 2, PBS, TCmax about 1000 μg/mL): <88 min-μg/mL
- C1200 (Table 6, concentration of Drug 2 at 1200 minutes, PBS, TCmax about 1000 μg/mL): <1 µg/mL
- Cmax, 90 (Table 6, maximum concentration of Drug 2 in solution during the first 90 minutes, PBS, TCmax about 1000 μg/mL): <1000 ng/mL
- AUC90 [1]: < 1470 ng·h/mL
- Cmax, 90 [1]: <1000 ng/mL
- AUC90 [2]: <88 min-μg/mL
- Cmax, 90 [2]: <1000 ng/mL
- AUC90 [3]: <88 min-μg/mL
- Cmax, 90 [3]: <1000 ng/mL
- AUC90 (Table 41: Drug 2, PBS): <88 min-μg/mL
- Cmax, 90 (Table 41: Drug 2, PBS): <1000 ng/mL
- AUC90 (Table 44: Drug 2, PBS): <88 min-μg/mL
- Cmax, 90 (Table 44: Drug 2, PBS): <1000 ng/mL
SMILES: CCOC(=O)N1c2ccc(C(F)(F)F)cc2[C@@H](N(Cc2cc(C(F)(F)F)cc(C(F)(F)F)c2)C(=O)OC)C[C@H]1CC [Control 2, [2R,4S]4-[(3,5-bis-trifluoromethyl-benzyl)-methoxycarbonyl-amino]-2-ethyl-6-trifluoromethyl-3,4-dihydro-2H-quinoline-1-carboxylic acid ethyl ester]
